Data taken from patent publication US8546579B2, “Bicycloheteroaryl compounds as P2X7 modulators and uses thereof” (Evotec (US) Inc., priority 2006, dated 2013).
Like-named read-outs stand apart in the source and are kept apart here.

Target: T1, P2X7 receptor (Homo sapiens, UniProt Q99572)
T1 construct: host or cells: THP-1 cells differentiated with LPS and IFN-γ
T1 sequence (Q99572 1-595): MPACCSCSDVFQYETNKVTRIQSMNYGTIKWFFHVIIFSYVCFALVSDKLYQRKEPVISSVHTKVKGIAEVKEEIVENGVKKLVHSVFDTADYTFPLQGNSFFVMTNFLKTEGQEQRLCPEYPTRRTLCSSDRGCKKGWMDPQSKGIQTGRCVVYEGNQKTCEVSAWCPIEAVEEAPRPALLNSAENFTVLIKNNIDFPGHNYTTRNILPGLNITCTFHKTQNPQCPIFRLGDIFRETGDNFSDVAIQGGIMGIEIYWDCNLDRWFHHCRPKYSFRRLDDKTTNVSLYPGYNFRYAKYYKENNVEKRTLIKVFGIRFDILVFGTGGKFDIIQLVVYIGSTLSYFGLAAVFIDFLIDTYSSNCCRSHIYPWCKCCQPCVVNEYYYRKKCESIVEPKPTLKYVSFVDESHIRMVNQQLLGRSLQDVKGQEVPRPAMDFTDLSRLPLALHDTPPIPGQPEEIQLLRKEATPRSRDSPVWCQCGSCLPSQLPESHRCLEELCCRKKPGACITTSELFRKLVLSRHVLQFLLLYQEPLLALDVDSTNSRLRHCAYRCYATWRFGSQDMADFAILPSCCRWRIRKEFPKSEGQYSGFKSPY
Assay: IL-1β release assay in differentiated THP-1 cells stimulated with BzATP (Example 9)
Assay type: cell-based
Conditions: differentiated THP-1 cells, BzATP 250 uM; for inhibition at 0.3 µM: 0.3 μM compound, read-out: IL-1β % Inhib. @ 0.3 μM; for inhibition at 0.1 µM: 0.1 μM compound
How it was run: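 THP-1 cells differentiated 16 h with LPS and IFN-γ (100 ng/mL each), re-primed 2 h with LPS, then compound-pretreated 30 min before 250 uM BzATP for 45 min. Supernatant IL-1β quantified by ELISA; background-adjusted percent inhibition fitted to four-parameter logistic for IC50.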

[1] = '*' class symbols, read-out: IL-1β % Inhib. (asterisk classes, 0.1 μM)
[2] = symbols * to ****, read-out: IL-1β % Inhib. (asterisk symbols: at 0.1 μM)

Row | SMILES | inhibition at 0.3 µM ('+' class symbols) [%] | inhibition at 0.3 µM (symbols + to ++++) [%] | other results
1 | CCOc1ccccc1CC(=O)Nc1cccc2c(=O)n(CCN(C)C)ccc12 [Compound 1177] | 0 to 25 |  | 
2 | COc1ccc(CC(=O)Nc2cccc3c(=O)n(CCN(C)C)ccc23)cc1C [Compound 1178] | 0 to 25 |  | 
3 | Cc1ccc(Cl)c(C(=O)Nc2cccc3c(=O)n(CCN(C)C)ccc23)c1 [Compound 1179] | 0 to 25 |  | 
4 | Cc1ccc(Cl)cc1C(=O)Nc1cccc2c(=O)n(CCN(C)C)ccc12 [Compound 1180] | 0 to 25 |  | 
5 | Cc1cccc(CCC(=O)Nc2cccc3c(=O)n(CCN(C)C)ccc23)c1 [Compound 1181] | 0 to 25 |  | 
6 | CN(C)CCn1ccc2c(NC(=O)c3cc4cc(Cl)ccc4o3)cccc2c1=O [Compound 1182] | 0 to 25 |  | 
7 | Cc1cccc(C(=O)Nc2cccc3c(=O)n(CCN(C)C)ccc23)c1Cl [Compound 1183] | 0 to 25 |  | 
8 | COc1ccc(C(=O)Nc2cccc3c(=O)n(CCN(C)C)ccc23)cc1C [Compound 1184] | 0 to 25 |  | 
9 | Cc1ccc(CCC(=O)Nc2cccc3c(=O)n(CCN(C)C)ccc23)c(C)c1 [Compound 1185] | 0 to 25 |  | 
10 | CN(C)CCn1ccc2c(NC(=O)CCc3cccc(Cl)c3)cccc2c1=O [Compound 1186] | 51 to 75 |  | 
11 | CC(C)Cc1ccc(C(=O)Nc2cccc3c(=O)n(CCN(C)C)ccc23)cc1 [Compound 1187] | 0 to 25 |  | 
12 | O=C(Nc1cccc2c(=O)n(CCN3CCOCC3)ccc12)c1ccccc1Cl [Compound 1188] | 0 to 25 |  | 
13 | O=C(Nc1cccc2c(=O)n(CCN3CCOCC3)ccc12)c1ccc(Cl)cc1Cl [Compound 1189] | 0 to 25 |  | 
14 | O=C(Nc1cccc2c(=O)n(CCN3CCOCC3)ccc12)c1cc(Cl)ccc1Cl [Compound 1190] | 0 to 25 |  | 
15 | Cc1ccccc1C(=O)Nc1cccc2c(=O)n(CCN3CCOCC3)ccc12 [Compound 1191] | 0 to 25 |  | 
16 | Cc1cccc(C(=O)Nc2cccc3c(=O)n(CCN4CCOCC4)ccc23)c1C [Compound 1192] | 26 to 50 |  | 

Row | SMILES | inhibition at 0.3 µM ('+' class symbols) [%] | inhibition at 0.3 µM (symbols + to ++++) [%] | other results
17 | Cc1ccc(C(=O)Nc2cccc3c(=O)n(CCN4CCOCC4)ccc23)c(C)c1 [Compound 1193] | 0 to 25 |  | 
18 | Cc1ccc(C)c(C(=O)Nc2cccc3c(=O)n(CCN4CCOCC4)ccc23)c1 [Compound 1194] | 0 to 25 |  | 
19 | O=C(Nc1cccc2c(=O)n(CCN3CCOCC3)ccc12)c1cc(Cl)cc(Cl)c1 [Compound 1195] |  |  | inhibition at 0.1 µM [1]: 0 to 25%
20 | COc1cc(OC)cc(C(=O)Nc2cccc3c(=O)n(CCN4CCOCC4)ccc23)c1 [Compound 1196] |  |  | inhibition at 0.1 µM [1]: 0 to 25%
21 | Cc1cccc(C(=O)Nc2cccc3c(=O)n(CCN4CCOCC4)ccc23)c1 [Compound 1197] |  |  | inhibition at 0.1 µM [1]: 0 to 25%
22 | CCOc1ccc(C(=O)Nc2cccc3c(=O)n(CCN4CCOCC4)ccc23)cc1 [Compound 1198] |  |  | inhibition at 0.1 µM [2]: 0 to 25%
23 | CC(C)(C)c1ccc(C(=O)Nc2cccc3c(=O)n(CCN4CCOCC4)ccc23)cc1 [Compound 1199] |  |  | inhibition at 0.1 µM [2]: 0 to 25%
24 | CC(C(=O)Nc1cccc2c(=O)n(CCN3CCOCC3)ccc12)c1ccccc1 (stereo not drawn) [Compound 1200] |  | 0 to 25 | 
25 | COc1ccccc1CCC(=O)Nc1cccc2c(=O)n(CCN3CCOCC3)ccc12 [Compound 1201] |  |  | inhibition at 0.1 µM [2]: 0 to 25%
26 | COc1ccc(CCC(=O)Nc2cccc3c(=O)n(CCN4CCOCC4)ccc23)cc1 [Compound 1202] |  | 0 to 25 | 
27 | O=C(Cc1cccc2ccccc12)Nc1cccc2c(=O)n(CCN3CCOCC3)ccc12 [Compound 1203] |  | 0 to 25 | 
28 | O=C(Cc1ccccc1F)Nc1cccc2c(=O)n(CCN3CCOCC3)ccc12 [Compound 1204] |  | 0 to 25 | 
29 | O=C(Cc1ccccc1Cl)Nc1cccc2c(=O)n(CCN3CCOCC3)ccc12 [Compound 1205] |  | 0 to 25 | 
30 | COc1ccccc1CC(=O)Nc1cccc2c(=O)n(CCN3CCOCC3)ccc12 [Compound 1206] |  | 0 to 25 | 
31 | COc1ccc(OC)c(CC(=O)Nc2cccc3c(=O)n(CCN4CCOCC4)ccc23)c1 [Compound 1207] |  | 0 to 25 | 
32 | Cc1ccccc1CC(=O)Nc1cccc2c(=O)n(CCN3CCOCC3)ccc12 [Compound 1208] |  | 0 to 25 | 

Further lines, with some results ahead:

Row | inhibition at 0.3 µM ('+' class symbols) [%] | inhibition at 0.3 µM (symbols + to ++++) [%] | SMILES | other results
33 |  | 0 to 25 | COc1cccc(CC(=O)Nc2cccc3c(=O)n(CCN4CCOCC4)ccc23)c1 [Compound 1209] | 
34 |  | 0 to 25 | COc1ccc(CC(=O)Nc2cccc3c(=O)n(CCN4CCOCC4)ccc23)cc1OC [Compound 1210] | 
35 |  | 0 to 25 | Cc1cccc(CC(=O)Nc2cccc3c(=O)n(CCN4CCOCC4)ccc23)c1 [Compound 1211] | 
36 |  | 0 to 25 | COc1ccc(CC(=O)Nc2cccc3c(=O)n(CCN4CCOCC4)ccc23)cc1 [Compound 1212] | 
37 |  | 0 to 25 | CCOc1ccc(CC(=O)Nc2cccc3c(=O)n(CCN4CCOCC4)ccc23)cc1 [Compound 1213] | 
38 |  | 0 to 25 | Cc1ccc(CC(=O)Nc2cccc3c(=O)n(CCN4CCOCC4)ccc23)cc1 [Compound 1214] | 
39 |  | 0 to 25 | O=C(CCCc1ccccc1)Nc1cccc2c(=O)n(CCN3CCOCC3)ccc12 [Compound 1215] | 
40 |  | 0 to 25 | O=C(Nc1cccc2c(=O)n(CCN3CCOCC3)ccc12)c1cc2ccccc2o1 [Compound 1216] | 
41 |  | 0 to 25 | O=C(Cc1ccc2c(c1)OCO2)Nc1cccc2c(=O)n(CCN3CCOCC3)ccc12 [Compound 1217] | 
42 |  | 26 to 50 | COc1cc(CC(=O)Nc2cccc3c(=O)n(CCN4CCOCC4)ccc23)cc(OC)c1 [Compound 1218] | 
43 |  | 26 to 50 | COc1c(C)cc(C(=O)Nc2cccc3c(=O)n(CCN4CCOCC4)ccc23)cc1C [Compound 1219] | 
44 |  | 0 to 25 | Cc1ccc(C(=O)Nc2cccc3c(=O)n(CCN4CCOCC4)ccc23)cc1Cl [Compound 1220] | 
45 |  | 0 to 25 | Cc1cc(Cl)ccc1C(=O)Nc1cccc2c(=O)n(CCN3CCOCC3)ccc12 [Compound 1221] | 
46 |  | 0 to 25 | O=C(CC1CC2CC[C@H]1C2)Nc1cccc2c(=O)n(CCN3CCOCC3)ccc12 (stereo partly drawn) [Compound 1222] | 
47 |  | 0 to 25 | O=C(Nc1cccc2c(=O)n(CCN3CCOCC3)ccc12)[C@@]12C[C@@H]3C[C@@H](C[C@@H]1C3)C2 [Compound 1223] | 
48 |  | 0 to 25 | O=C(Nc1cccc2c(=O)n(CCN3CCOCC3)ccc12)c1cccc2c1OCCO2 [Compound 1224] | 
49 |  | 0 to 25 | O=C(Nc1cccc2c(=O)n(CCN3CCOCC3)ccc12)c1ccc2c(c1)OCCCO2 [Compound 1225] | 
50 |  | 0 to 25 | O=C(Cc1csc2ccccc12)Nc1cccc2c(=O)n(CCN3CCOCC3)ccc12 [Compound 1226] | 
51 |  | 0 to 25 | Cc1c(Cl)cccc1C(=O)Nc1cccc2c(=O)n(CCN3CCOCC3)ccc12 [Compound 1227] | 
52 |  | 0 to 25 | Cc1cc(C)cc(CC(=O)Nc2cccc3c(=O)n(CCN4CCOCC4)ccc23)c1 [Compound 1228] | 
53 |  | 0 to 25 | COc1ccc(CC(=O)Nc2cccc3c(=O)n(CCN4CCOCC4)ccc23)c(OC)c1 [Compound 1230] | 
54 |  | 0 to 25 | Cc1cc(C(=O)Nc2cccc3c(=O)n(CCN4CCOCC4)ccc23)ccc1F [Compound 1231] | 
55 |  | 0 to 25 | O=C(CCc1ccc(Cl)cc1)Nc1cccc2c(=O)n(CCN3CCOCC3)ccc12 [Compound 1232] | 
56 |  | 0 to 25 | CCOc1ccccc1CC(=O)Nc1cccc2c(=O)n(CCN3CCOCC3)ccc12 [Compound 1233] | 
57 |  | 0 to 25 | COc1ccc(CC(=O)Nc2cccc3c(=O)n(CCN4CCOCC4)ccc23)cc1C [Compound 1234] | 
